± gives the uncertainty stated by the source.
Test: xn = mol fraction of the nth substance listed

CC(=O)Oc1ccccc1C(=O)O + CC#N + CCCCCC[n+]1ccn(C)c1.[Br-]
viscosity [mPa·s], 101 kPa
Settings	288.15 K	298.15 K	308.15 K	318.15 K
x1 = 0.001647, x3 = 0	0.394 ± 0.009	0.349 ± 0.008	0.316 ± 0.007	0.292 ± 0.006
x1 = 0.001682, x3 = 0.004167	0.408 ± 0.009	0.37 ± 0.008	0.336 ± 0.007	0.309 ± 0.007
x1 = 0.001814, x3 = 0.0117	0.434 ± 0.009	0.393 ± 0.008	0.372 ± 0.008	0.343 ± 0.007
x1 = 0.001864, x3 = 0.008116	0.431 ± 0.009	0.388 ± 0.008	0.353 ± 0.008	0.324 ± 0.007
x1 = 0.00335, x3 = 0.00416	0.412 ± 0.009	0.373 ± 0.008	0.34 ± 0.007	0.313 ± 0.007
x1 = 0.003412, x3 = 0	0.398 ± 0.009	0.353 ± 0.008	0.319 ± 0.007	0.295 ± 0.006
x1 = 0.003448, x3 = 0.01168	0.437 ± 0.009	0.396 ± 0.009	0.376 ± 0.008	0.346 ± 0.007
x1 = 0.003521, x3 = 0.008102	0.435 ± 0.009	0.391 ± 0.008	0.356 ± 0.008	0.327 ± 0.007
x1 = 0.004495, x3 = 0	0.402 ± 0.009	0.355 ± 0.008	0.322 ± 0.007	0.297 ± 0.006
x1 = 0.004647, x3 = 0.004154	0.416 ± 0.009	0.376 ± 0.008	0.343 ± 0.007	0.315 ± 0.007
x1 = 0.004832, x3 = 0.01167	0.441 ± 0.009	0.399 ± 0.009	0.38 ± 0.008	0.349 ± 0.008
x1 = 0.004834, x3 = 0.008092	0.438 ± 0.009	0.395 ± 0.009	0.359 ± 0.008	0.33 ± 0.007
x1 = 0.00569, x3 = 0	0.405 ± 0.009	0.358 ± 0.008	0.325 ± 0.007	0.3 ± 0.007
x1 = 0.005813, x3 = 0.004149	0.42 ± 0.009	0.38 ± 0.008	0.346 ± 0.007	0.317 ± 0.007
x1 = 0.005963, x3 = 0.008083	0.441 ± 0.009	0.398 ± 0.009	0.363 ± 0.008	0.333 ± 0.007
x1 = 0.006109, x3 = 0.01165	0.444 ± 0.01	0.402 ± 0.009	0.383 ± 0.008	0.352 ± 0.008
x1 = 0.006963, x3 = 0	0.408 ± 0.009	0.362 ± 0.008	0.328 ± 0.007	0.303 ± 0.007
x1 = 0.007083, x3 = 0.004144	0.423 ± 0.009	0.383 ± 0.008	0.349 ± 0.008	0.32 ± 0.007
x1 = 0.007249, x3 = 0.008072	0.444 ± 0.01	0.401 ± 0.009	0.366 ± 0.008	0.335 ± 0.007
x1 = 0.007314, x3 = 0.01164	0.448 ± 0.01	0.406 ± 0.009	0.386 ± 0.008	0.355 ± 0.008
x1 = 0.00845, x3 = 0	0.412 ± 0.009	0.365 ± 0.008	0.331 ± 0.007	0.306 ± 0.007
x1 = 0.008753, x3 = 0.004137	0.428 ± 0.009	0.387 ± 0.008	0.354 ± 0.008	0.324 ± 0.007
x1 = 0.008914, x3 = 0.008059	0.448 ± 0.01	0.405 ± 0.009	0.369 ± 0.008	0.339 ± 0.007
x1 = 0.00934, x2 = 0.979	0.452 ± 0.01	0.41 ± 0.009	0.39 ± 0.008	0.359 ± 0.008
x1 = 0.009969, x3 = 0	0.416 ± 0.009	0.369 ± 0.008	0.334 ± 0.007	0.309 ± 0.007
x1 = 0.009979, x3 = 0.004132	0.432 ± 0.009	0.39 ± 0.008	0.356 ± 0.008	0.327 ± 0.007
x1 = 0.01021, x2 = 0.9782	0.455 ± 0.01	0.412 ± 0.009	0.392 ± 0.008	0.361 ± 0.008
x1 = 0.01031, x3 = 0.008047	0.451 ± 0.01	0.408 ± 0.009	0.372 ± 0.008	0.342 ± 0.007
x1 = 0.01098, x3 = 0	0.419 ± 0.009	0.371 ± 0.008	0.337 ± 0.007	0.311 ± 0.007
x1 = 0.01114, x3 = 0.004127	0.436 ± 0.009	0.393 ± 0.008	0.359 ± 0.008	0.33 ± 0.007
x1 = 0.01158, x3 = 0.008037	0.454 ± 0.01	0.411 ± 0.009	0.375 ± 0.008	0.345 ± 0.007
x1 = 0.01173, x2 = 0.9767	0.458 ± 0.01	0.416 ± 0.009	0.396 ± 0.009	0.364 ± 0.008
x1 = 0.01219, x3 = 0	0.422 ± 0.009	0.375 ± 0.008	0.34 ± 0.007	0.314 ± 0.007
x1 = 0.0126, x3 = 0.004121	0.44 ± 0.009	0.396 ± 0.009	0.362 ± 0.008	0.333 ± 0.007
x1 = 0.01261, x2 = 0.9794	0.458 ± 0.01	0.414 ± 0.009	0.378 ± 0.008	0.348 ± 0.008
x1 = 0.01337, x2 = 0.9751	0.462 ± 0.01	0.42 ± 0.009	0.4 ± 0.009	0.368 ± 0.008

ClCCl + CCCC[n+]1ccn(C)c1.F[P-](F)(F)(F)(F)F
298.15 K, 101 kPa
Settings	electrical conductivity [S/m]	viscosity [mPa·s]
x1 = 0.2451	0.394 ± 0.047	89 ± 21
x1 = 0.4351	0.731 ± 0.088	34.7 ± 3.5

CCCCCCCC[N+](CCCCCCCC)(CCCCCCCC)CCCCCCCC.[Br-] + CCCCCCC(=O)O
Settings	electrical conductivity [S/m]
298.1 K, 100 kPa, x1 = 0.333	4.5e-06 ± 5e-07

CC[n+]1ccn(C)c1.F[B-](F)(F)F + OCCO
Settings	viscosity [mPa·s]
293.15 K, 100 kPa, x2 = 0.6954	14.9 ± 1.5
298.15 K, 100 kPa, x2 = 0.283	19.8 ± 2
298.15 K, 100 kPa, x2 = 0.4435	15.1 ± 1.5
303.15 K, 100 kPa, x2 = 0	34.5 ± 3.5
303.15 K, 101 kPa, x1 = 0.4011	9.88 ± 0.99
313.15 K, 100 kPa, x2 = 0.4435	9.71 ± 0.97
313.15 K, 101 kPa, x1 = 0.4011	7.3 ± 0.73
323.15 K, 100 kPa, x2 = 0.4435	7.57 ± 0.76
323.15 K, 100 kPa, x2 = 0.5876	6.34 ± 0.64
333.15 K, 100 kPa, x2 = 0.4435	6.08 ± 0.61
333.15 K, 100 kPa, x2 = 0.5237	5.44 ± 0.55
333.15 K, 100 kPa, x2 = 0.8751	4.42 ± 0.44
333.15 K, 101 kPa, x1 = 0.0993	4.28 ± 0.43
333.15 K, 101 kPa, x1 = 0.2001	4.08 ± 0.41
343.15 K, 100 kPa, x2 = 0.4435	5.01 ± 0.5
343.15 K, 100 kPa, x2 = 0.5876	4.13 ± 0.42
353.15 K, 100 kPa, x2 = 0	9.58 ± 0.97
353.15 K, 100 kPa, x2 = 0.5876	3.46 ± 0.35
353.15 K, 100 kPa, x2 = 0.6954	3.07 ± 0.31
353.15 K, 100 kPa, x2 = 0.7916	2.9 ± 0.29

CC[n+]1ccn(C)c1.F[B-](F)(F)F + CC1COC(=O)O1
298 K, 101 kPa
Settings	electrical conductivity [S/m]
x2 = 0.16	1.5 ± 0.12
x2 = 0.83	1.68 ± 0.13
x2 = 0.89	1.46 ± 0.12

CCCCCC[n+]1ccccc1.N#C[N-]C#N + O
100 kPa
Settings	electrical conductivity [S/m]	viscosity [mPa·s]
298.15 K, x1 = 0.9308	–	50.4 ± 1
298.15 K, x1 = 0.9582	0.494 ± 0.014	–
298.15 K, x1 = 0.9762	0.477 ± 0.013	–
298.15 K, x2 = 0.01463	–	56.3 ± 1.2
303.15 K, x1 = 0.9663	–	43.33 ± 0.95
308.15 K, x1 = 0.924	0.796 ± 0.02	–
318.15 K, x1 = 0.9146	–	22.52 ± 0.49
318.15 K, x1 = 0.9409	1.09 ± 0.026	–
318.15 K, x1 = 0.9663	–	24.43 ± 0.53
328.15 K, x1 = 0.9146	–	15.96 ± 0.35
328.15 K, x1 = 0.924	1.47 ± 0.033	–
328.15 K, x1 = 0.9487	–	16.85 ± 0.37
328.15 K, x1 = 0.9762	1.35 ± 0.031	–
338.15 K, x1 = 0.9075	1.94 ± 0.042	–
338.15 K, x1 = 0.9146	–	12.16 ± 0.27
338.15 K, x1 = 0.9409	1.85 ± 0.041	–
338.15 K, x2 = 0.01463	–	13.8 ± 0.3

CCCC[n+]1ccn(C)c1.CCOS(=O)(=O)[O-] + CC[n+]1ccn(C)c1.O=S(=O)([N-]S(=O)(=O)C(F)(F)F)C(F)(F)F
298.15 K, 100 kPa
Settings	viscosity [mPa·s]
x2 = 0	255.2 ± 7.6
x2 = 0.5013	87.6 ± 1.5
x2 = 0.7113	57.11 ± 0.83

— the CheMixHub ionic liquid set
